The results in this text go back to PubChem BioAssay AID248 (DTP/NCI, 2004).

Several values for one entry are separate records, joined by “and”; a condition that tells them apart may be missing. Equal values may be shown once. Inconclusive results and toxic doses are left out.

The assay has as its system L1210 leukemia ip in BDF1 mice, survival T/C. The experiment in a line: NCI In Vivo Anticancer Drug Screen. Data for tumor model L1210 Leukemia (intraperitoneal) in B6D2F1 (BDF1) mice. As to conditions: endpoint: mean survival time, higher = longer survival. In short, it runs like this:
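Value reflects the ratio of survival in compound-treated mice to survival in vehicle-treated controls, with both groups carrying the same transplanted tumor.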

The mark [1] stands for this setting: dose: 100.0 mg/kg/injection, schedule: Q01DX001 (ip), vehicle: saline.
Setting [2] is: dose: 200.0 mg/kg/injection, schedule: Q01DX001 (ip), vehicle: saline.
The mark [3] stands for this setting: dose: 400.0 mg/kg/injection, schedule: Q01DX001 (ip), vehicle: saline.
Where [4] appears, read: dose: 100.0 mg/kg/injection, schedule: Q01DX009 (ip), vehicle: Klucel (hydroxypropylcellulose) (HPC).
[5] abbreviates: dose: 100.0 mg/kg/injection, schedule: Q04DX003 (ip), vehicle: Klucel (hydroxypropylcellulose) (HPC).
The mark [6] stands for this setting: dose: 200.0 mg/kg/injection, schedule: Q01DX009 (ip), vehicle: Klucel (hydroxypropylcellulose) (HPC).
Setting [7] is: dose: 200.0 mg/kg/injection, schedule: Q04DX003 (ip), vehicle: Klucel (hydroxypropylcellulose) (HPC).
Setting [8] is: dose: 400.0 mg/kg/injection, schedule: Q01DX009 (ip), vehicle: Klucel (hydroxypropylcellulose) (HPC).
Where [9] appears, read: dose: 400.0 mg/kg/injection, schedule: Q04DX003 (ip), vehicle: Klucel (hydroxypropylcellulose) (HPC).
Where [10] appears, read: dose: 50.0 mg/kg/injection, schedule: Q01DX009 (ip), vehicle: saline with Tween-80.
The mark [11] stands for this setting: dose: 100.0 mg/kg/injection, schedule: Q01DX009 (ip), vehicle: saline with Tween-80.
[12] abbreviates: dose: 200.0 mg/kg/injection, schedule: Q01DX009 (ip), vehicle: saline with Tween-80.
[13] abbreviates: dose: 25.0 mg/kg/injection, schedule: Q04DX002 (ip), vehicle: saline.
The mark [14] stands for this setting: dose: 50.0 mg/kg/injection, schedule: Q01DX001 (ip), vehicle: saline.
[15] abbreviates: dose: 50.0 mg/kg/injection, schedule: Q04DX002 (ip), vehicle: saline.

Regarding `CNC(=O)c1c2c(nc3ccccc13)CCCC2`, the T/C was 102 % of control under setting [1], 102 % of control under setting [2] and 111 % of control under setting [3].
As for `O=C(O)C(CSC(c1ccccc1)(c1ccccc1)c1ccccc1)NSc1ccccc1[N+](=O)[O-]` (stereo not given), the T/C is, setting by setting: under setting [4], 114 % of control; under setting [5], 98 % of control; (dose: 175.0 mg/kg/injection, schedule: Q01DX009 (ip), vehicle: Klucel (hydroxypropylcellulose) (HPC)) 98 % of control; under setting [6], 121 % of control; under setting [7], 102 % of control; (dose: 265.0 mg/kg/injection, schedule: Q01DX009 (ip), vehicle: Klucel (hydroxypropylcellulose) (HPC)) 100 % of control. Further, the T/C by setting is: under setting [8], 110 % of control; under setting [9], 95 % of control.
With `ClC(Cl)(NC1CCCCC1)NC1CCCCC1`, the T/C under setting [1] was 90 % of control, the T/C under setting [2] was 91 % of control and the T/C under setting [3] is 86 % of control.
For the molecule `COC1/C=C\CC2=CCCC=C2CC1` (stereo not given), the T/C by setting is: under setting [10], 112 % of control; under setting [11], 123 % of control; under setting [12], 105 % of control.
Consider `Nc1ncc(CBr)c(N)n1`, for which the T/C reads like this: (dose: 100.0 mg/kg/injection, schedule: Q04DX003 (ip), vehicle: saline) 97 % of control; (dose: 200.0 mg/kg/injection, schedule: Q04DX003 (ip), vehicle: saline) 96 % of control.
With `NC(=Nc1ccccc1)C(N)=Nc1ccccc1`, the T/C runs as follows: (dose: 100.0 mg/kg/injection, schedule: Q04DX002 (ip), vehicle: gum acacia) 107 % of control; (dose: 200.0 mg/kg/injection, schedule: Q04DX002 (ip), vehicle: gum acacia) 96 % of control; (dose: 400.0 mg/kg/injection, schedule: Q04DX002 (ip), vehicle: gum acacia) 93 % of control.
As to `COc1ccccc1NC(=S)Nc1ccccc1`, the T/C is, setting by setting: (dose: 100.0 mg/kg/injection, schedule: Q04DX002 (ip), vehicle: Klucel (hydroxypropylcellulose) (HPC)) 97 % of control; (dose: 200.0 mg/kg/injection, schedule: Q04DX002 (ip), vehicle: Klucel (hydroxypropylcellulose) (HPC)) 101 % of control; (dose: 400.0 mg/kg/injection, schedule: Q04DX002 (ip), vehicle: Klucel (hydroxypropylcellulose) (HPC)) 108 % of control.
As for `CCC[As](=O)(O)CC(C)C`, the T/C is 102 % of control (dose: 6.25 mg/kg/injection, schedule: Q01DX001 (ip), vehicle: saline); 119 % of control (dose: 6.25 mg/kg/injection, schedule: Q01DX009 (ip), vehicle: saline); 98 % of control (dose: 12.5 mg/kg/injection, schedule: Q01DX001 (ip), vehicle: saline); 101 % of control and 108 % of control (dose: 12.5 mg/kg/injection, schedule: Q01DX009 (ip), vehicle: saline); 94 % of control (dose: 12.5 mg/kg/injection, schedule: Q04DX003 (ip), vehicle: saline); 101 % of control (dose: 25.0 mg/kg/injection, schedule: Q01DX001 (ip), vehicle: saline). Also, the T/C (dose: 25.0 mg/kg/injection, schedule: Q01DX009 (ip), vehicle: saline) was 162 % of control; the T/C under setting [13] was 97 % of control; the T/C (dose: 25.0 mg/kg/injection, schedule: Q04DX003 (ip), vehicle: saline) is 113 % of control; the T/C under setting [14] is 104 % of control; the T/C under setting [15] was 103 % of control; the T/C (dose: 50.0 mg/kg/injection, schedule: Q04DX003 (ip), vehicle: saline) is 95 % of control.
Turning to `COc1ccc(C)cc1CN1NC(=O)CC1=N`, the T/C is, setting by setting: under setting [4], 97 % of control; under setting [5], 106 % of control; under setting [6], 101 % of control; under setting [7], 110 % of control; under setting [8], 98 % of control; under setting [9], 102 % of control.
As to `Nc1nc(N)c2c(Cl)c(CNc3ccc(Cl)c(Cl)c3)ccc2n1`, the T/C was 124 % of control (dose: 6.25 mg/kg/injection, schedule: Q01DX009 (ip), vehicle: water); 158 % of control (dose: 12.5 mg/kg/injection, schedule: Q01DX009 (ip), vehicle: saline with Tween-80); 119 % of control under setting [10]; 93 % of control and 110 % of control (dose: 50.0 mg/kg/injection, schedule: Q01DX009 (ip), vehicle: water); 107 % of control (dose: 50.0 mg/kg/injection, schedule: Q04DX003 (ip), vehicle: water); 91 % of control under setting [11]. Further, the T/C is, setting by setting: (dose: 100.0 mg/kg/injection, schedule: Q01DX009 (ip), vehicle: water) 86 % of control; (dose: 100.0 mg/kg/injection, schedule: Q04DX003 (ip), vehicle: water) 124 % of control; (dose: 400.0 mg/kg/injection, schedule: Q04DX003 (ip), vehicle: water) 113 % of control; (dose: 600.0 mg/kg/injection, schedule: Q04DX003 (ip), vehicle: water) 97 % of control.
As to `CC(=O)/C=C(/C(=O)c1ccccc1)c1ccccc1`, the T/C is, setting by setting: (dose: 100.0 mg/kg/injection, schedule: Q01DX001 (ip), vehicle: saline with Tween-80) 93 % of control; (dose: 200.0 mg/kg/injection, schedule: Q01DX001 (ip), vehicle: saline with Tween-80) 98 % of control; (dose: 400.0 mg/kg/injection, schedule: Q01DX001 (ip), vehicle: saline with Tween-80) 97 % of control.
Turning to `O=C(O)Cc1ccc(NC(=O)NCCCl)cc1`, the T/C runs as follows: (dose: 100.0 mg/kg/injection, schedule: Q01DX001 (ip), vehicle: carboxymethylcellulose (CMC)) 87 % of control; (dose: 200.0 mg/kg/injection, schedule: Q01DX001 (ip), vehicle: carboxymethylcellulose (CMC)) 98 % of control; (dose: 400.0 mg/kg/injection, schedule: Q01DX001 (ip), vehicle: carboxymethylcellulose (CMC)) 93 % of control.
As to `O=C(CCCC(=O)N/N=C/c1c[nH]c2ccc(Br)cc12)N/N=C\c1c[nH]c2ccc(Br)cc12`, the T/C runs as follows: under setting [14], 105 % of control; under setting [1], 102 % of control; under setting [2], 107 % of control; under setting [3], 96 % of control.
Turning to `CCOC(=O)c1cnc(SC)nc1Nc1ccccc1F`, the T/C is 89 % of control (dose: 100.0 mg/kg/injection, schedule: Q04DX003 (ip), vehicle: saline with Tween-80) and 92 % of control (dose: 200.0 mg/kg/injection, schedule: Q04DX003 (ip), vehicle: saline with Tween-80).
With `CCO/C=C1\SC(=S)N(c2cccc(O)c2)C1=O`, the T/C by setting is: (dose: 25.0 mg/kg/injection, schedule: Q01DX009 (ip), vehicle: Klucel (hydroxypropylcellulose) (HPC)) 86 % of control; (dose: 50.0 mg/kg/injection, schedule: Q01DX009 (ip), vehicle: Klucel (hydroxypropylcellulose) (HPC)) 113 % of control; under setting [4], 93 % of control.
`CCCC(C)(C)N`: the T/C is 97 % of control under setting [13]; 90 % of control under setting [15]; 103 % of control (dose: 100.0 mg/kg/injection, schedule: Q04DX002 (ip), vehicle: saline).
`O=C(CSc1cc(Cl)c(Cl)cc1Cl)Nc1ccccc1Br`: the T/C is 94 % of control under setting [10], 97 % of control under setting [11] and 87 % of control under setting [12].
In the case of `CNc1ccc(OC)cc1`, the T/C is, setting by setting: (dose: 100.0 mg/kg/injection, schedule: Q01DX009 (ip), vehicle: other) 95 % of control; (dose: 100.0 mg/kg/injection, schedule: Q04DX003 (ip), vehicle: other) 101 % of control; (dose: 200.0 mg/kg/injection, schedule: Q01DX009 (ip), vehicle: other) 111 % of control; (dose: 200.0 mg/kg/injection, schedule: Q04DX003 (ip), vehicle: other) 101 % of control; (dose: 400.0 mg/kg/injection, schedule: Q01DX009 (ip), vehicle: other) 124 % of control; (dose: 400.0 mg/kg/injection, schedule: Q04DX003 (ip), vehicle: other) 104 % of control.
